Measurements from patent publication US20240270821A1, “GIP/GLP1/GCG TRI-RECEPTOR AGONISTS AND USES THEREOF” (priority 2023, published 2024).
Read-outs that look alike come from different tables or passages of the source. Starred links: 1 amine or outer side, 2 acyl side, 3 side chain; linkers in the order of their positions; H or OH if unused. Non-standard residues stand in square brackets, D forms with d. Residues, ends and D or L forms follow the SMILES beside them. Groups on a side chain read outwards from the residue. No end group written: not given here. *: point of attachment. C20 diacid = O=C(O)CCCCCCCCCCCCCCCCCCC(=O)*; C18 diacid = O=C(O)CCCCCCCCCCCCCCCCC(=O)*; αMePhe(2-F) = C[C@](N)(Cc1ccccc1F)C(=O)O; γGlu = O=C(O)[C@H](CCC(=O)[*:2])N[*:1]; αMe4Pal = C[C@](N)(Cc1ccncc1)C(=O)O; αMeY = C[C@](N)(Cc1ccc(O)cc1)C(=O)O; αMeF = C[C@](N)(Cc1ccccc1)C(=O)O; 4Pal = N[C@@H](Cc1ccncc1)C(=O)O; αMeL = CC(C)C[C@](C)(N)C(=O)O; αMeS = C[C@](N)(CO)C(=O)O; Orn = NCCC[C@H](N)C(=O)O; AEEA = NCCOCCOCC(=O)O; Aib = CC(C)(N)C(=O)O

What was measured:
Format in all cases: cell-based
[1] = target: T1, hGIPR (Homo sapiens, UniProt P48546); experiment: Functional cAMP activity in the presence of 1% HSA; details: read-out: cAMP Rel EC50, hGIPR
T1 sequence (P48546 22-466): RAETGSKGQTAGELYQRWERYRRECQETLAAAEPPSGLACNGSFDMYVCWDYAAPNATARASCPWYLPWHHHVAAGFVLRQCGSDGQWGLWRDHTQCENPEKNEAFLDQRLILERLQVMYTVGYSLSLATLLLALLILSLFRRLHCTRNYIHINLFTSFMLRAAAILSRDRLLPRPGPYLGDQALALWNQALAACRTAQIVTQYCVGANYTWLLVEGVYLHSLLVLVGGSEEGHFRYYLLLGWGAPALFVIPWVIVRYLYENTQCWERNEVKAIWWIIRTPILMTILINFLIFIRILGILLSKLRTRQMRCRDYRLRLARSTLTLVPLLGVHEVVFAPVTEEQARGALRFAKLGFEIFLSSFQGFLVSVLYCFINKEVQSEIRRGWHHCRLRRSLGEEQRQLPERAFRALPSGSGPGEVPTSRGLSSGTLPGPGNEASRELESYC

[2] = target: T2, hGLP-1R (Homo sapiens, UniProt P43220); experiment: Functional cAMP activity in the presence of 1% HSA; details: read-out: cAMP Rel EC50, hGLP-1R
[3] = target: human GcgR (Homo sapiens, UniProt P47871); experiment: Functional cAMP activity in the presence of 1% HSA; details: read-out: cAMP Rel EC50, hGcgR
[4] = target: T1, hGIPR; experiment: Functional cAMP activation in the presence of 0.1% casein (no HSA); details: read-out: Relative cAMP EC50, hGIPR;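 on Relative cAMP EC50, hGIPR: intracellular cAMP rise after 30 min at 37 °C read by HTRF against a standard curve, scaled between buffer alone (0%) and top control ligand concentration (100%), four-parameter fit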;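 on Relative cAMP EC50, hGLP-1R: intracellular cAMP rise after 30 min at 37 °C read by HTRF, normalized between buffer only (0%) and maximal control ligand (100%), four-parameter variable-slope fit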;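 on Relative cAMP EC50, hGcgR: intracellular cAMP rise after 30 min at 37 °C, read by HTRF against a cAMP standard curve, scaled from buffer only (0%) to maximal control ligand response (100%)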
[5] = target: T2, hGLP-1R; experiment: as above; details: read-out: Relative cAMP EC50, hGLP-1R
[6] = target: hGcgR (Homo sapiens, UniProt P47871); experiment: as above; details: read-out: Relative cAMP EC50, hGcgR;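 further: intracellular cAMP rise after 30 min at 37 °C, read by HTRF against a cAMP standard curve, scaled from buffer only (0%) to maximal control ligand response (100%)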
[7] = in the presence of 0.1% casein (no HSA), geometric mean
[8] = HEK-293 clonal cell line, in the presence of 1% HSA, geometric mean of relative EC50
[9] = 0.1% casein, no HSA, geometric mean

T2 sequence (P43220 24-463): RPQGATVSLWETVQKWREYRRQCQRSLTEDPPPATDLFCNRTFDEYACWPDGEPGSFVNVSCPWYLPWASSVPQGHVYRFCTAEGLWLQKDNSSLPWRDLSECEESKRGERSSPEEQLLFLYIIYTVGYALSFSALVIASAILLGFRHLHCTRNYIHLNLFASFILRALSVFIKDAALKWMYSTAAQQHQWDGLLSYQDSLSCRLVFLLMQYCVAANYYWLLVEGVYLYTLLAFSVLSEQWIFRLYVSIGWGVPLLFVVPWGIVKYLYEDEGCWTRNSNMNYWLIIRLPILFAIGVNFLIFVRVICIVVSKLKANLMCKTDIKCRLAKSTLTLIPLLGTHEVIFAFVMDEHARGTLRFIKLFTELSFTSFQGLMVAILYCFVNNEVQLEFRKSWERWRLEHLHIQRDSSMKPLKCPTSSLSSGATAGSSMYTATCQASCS
hGcgR, sequence (P47871 26-477): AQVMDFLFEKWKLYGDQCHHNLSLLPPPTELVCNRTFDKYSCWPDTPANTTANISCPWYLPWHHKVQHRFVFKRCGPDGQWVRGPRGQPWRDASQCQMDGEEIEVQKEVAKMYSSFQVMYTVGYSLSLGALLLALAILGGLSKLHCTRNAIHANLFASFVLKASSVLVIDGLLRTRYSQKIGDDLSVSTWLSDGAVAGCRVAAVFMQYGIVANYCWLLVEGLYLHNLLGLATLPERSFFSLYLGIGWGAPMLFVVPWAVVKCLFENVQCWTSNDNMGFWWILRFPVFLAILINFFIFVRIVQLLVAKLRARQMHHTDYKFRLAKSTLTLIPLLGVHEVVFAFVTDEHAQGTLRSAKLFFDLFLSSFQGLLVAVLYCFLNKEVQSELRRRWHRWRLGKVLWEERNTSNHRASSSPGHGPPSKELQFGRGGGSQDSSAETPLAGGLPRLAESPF
human GcgR, sequence (P47871 26-477): as above

H-Y[Aib]QGTFTSD[4Pal][αMeS]Q[αMeL]LD[Orn]K([dE-γGlu-C18 diacid])AQ[αMe4Pal]QFIE[αMeY]LIE[Aib]GPSSGAPPPSGGGE-NH2 [Example 1187]
EC50 [1]: 7.11 nM
EC50 [2]: 154 nM
EC50 [3]: 370 nM
EC50 [4, 7]: 0.0648 nM
EC50 [5, 7]: 1.06 nM
EC50 [6, 7]: 1.81 nM

H-Y[Aib]QGTFTSDFS[Orn][αMeL]LDKK([AEEA-γGlu-C18 diacid])AQ[Aib]AFIEYLLAGGPSSGAPPPSGSQ-OH [Example 88]
EC50 [1]: 24.7 nM
EC50 [2]: 363 nM
EC50 [3]: 915 nM
EC50 [4, 7]: 0.177 nM
EC50 [5, 7]: 3.45 nM
EC50 [6, 7]: 7.48 nM

H-Y[Aib]QGT[αMeF]TSD[4Pal][αMeS]I[αMeL]LD[Orn]K([γGlu-γGlu-C18 diacid])AQ[αMe4Pal]EFI[dE][αMeY]LIEGGPSSGAPPPSGE-NH2 [Example 1170]
EC50 [1]: 0.663 nM
EC50 [2]: 50.2 nM
EC50 [3]: 249 nM
EC50 [4, 7]: 0.00783 nM
EC50 [5, 7]: 0.395 nM
EC50 [6, 7]: 2.43 nM

H-Y[Aib]QGT[αMePhe(2-F)]TSD[4Pal]SI[αMeL]LD[Orn]K([AEEA-γGlu-C18 diacid])AQ[αMe4Pal]EFI[dE][αMeY]LAEGGPSSGAPPPSGS-NH2 [Example 642]
EC50 [1]: 0.791 nM
EC50 [2]: 67.1 nM
EC50 [3]: 519 nM
EC50 [4]: 0.00796 nM
EC50 [5]: 0.474 nM
EC50 [6]: 3.49 nM

CC[C@H](C)[C@H](NC(=O)[C@H](Cc1ccccc1)NC(=O)[C@H](C)NC(=O)C(C)(C)NC(=O)[C@H](CCC(N)=O)NC(=O)[C@H](C)NC(=O)[C@H](CCCCNC(=O)COCCOCCNC(=O)CC[C@H](NC(=O)CCCCCCCCCCCCCCCCC(=O)O)C(=O)O)NC(=O)[C@H](CCCCN)NC(=O)[C@H](CC(=O)O)NC(=O)[C@H](CC(C)C)NC(=O)[C@](C)(CC(C)C)NC(=O)[C@@H](NC(=O)[C@H](CO)NC(=O)[C@H](Cc1ccc(O)cc1)NC(=O)[C@H](CC(=O)O)NC(=O)[C@H](CO)NC(=O)[C@@H](NC(=O)[C@](C)(Cc1ccccc1)NC(=O)[C@@H](NC(=O)CNC(=O)[C@H](CCC(N)=O)NC(=O)C(C)(C)NC(=O)[C@@H](N)Cc1ccc(O)cc1)[C@@H](C)O)[C@@H](C)O)[C@@H](C)CC)C(=O)N[C@@H](CCC(=O)O)C(=O)N[C@@H](Cc1ccc(O)cc1)C(=O)N[C@@H](CC(C)C)C(=O)N[C@@H](CCC(=O)O)C(=O)N[C@@H](CCC(=O)O)C(=O)NCC(=O)NCC(=O)N1CCC[C@H]1C(=O)N[C@@H](CO)C(=O)N[C@@H](CO)C(=O)NCC(=O)N[C@@H](C)C(=O)N1CCC[C@H]1C(=O)N1CCC[C@H]1C(=O)N1CCC[C@H]1C(=O)N[C@@H](CO)C(=O)N[C@@H](CCC(=O)O)C(=O)NCC(N)=O [Example 395]
EC50 [1]: 6.69 nM
EC50 [2]: 34.7 nM
EC50 [3]: 1190 nM
EC50 [4]: 0.0248 nM
EC50 [5]: 0.349 nM
EC50 [6]: 5.55 nM

H-Y[Aib]QGTFTSD[4Pal]SK[αMeL]LDKK([AEEA-γGlu-C18 diacid])AQ[Aib]AFIEYLIE[Aib]GPSSGAPPPSGSEE-NH2 [Example 902]
EC50 [1]: 28.5 nM
EC50 [2]: 232 nM
EC50 [3]: 1360 nM
EC50 [4, 7]: 0.19 nM
EC50 [5, 7]: 2.58 nM
EC50 [6, 7]: 15.9 nM

H-Y[Aib]QGTFTSD[4Pal]S[Orn][αMeL]LD[Orn]K([dE-γGlu-C18 diacid])AQ[αMe4Pal]AFIEYLIAGGPSSGAPPPSGSEE-NH2 [Example 1063]
EC50 [1]: 26.6 nM
EC50 [2]: 626 nM
EC50 [3]: 2290 nM
EC50 [4, 7]: 0.318 nM
EC50 [5, 7]: 6.96 nM
EC50 [6, 7]: 10.6 nM

H-Y[Aib]QGTFTSDFS[Orn][αMeL]LD[Orn]K([γGlu-γGlu-C18 diacid])AQ[Aib]AFIE[αMe4Pal]LLEGGPSSGAPPPGGSEE-NH2 [Example 1050]
EC50 [1, 8]: 68.5 nM
EC50 [2, 8]: 1240 nM
EC50 [3, 8]: 2040 nM
EC50 [4, 7]: 0.152 nM
EC50 [5, 7]: 7.65 nM
EC50 [6, 7]: 6.8 nM

H-Y[Aib]QGTFTSDFSK[αMeL]LDKK([AEEA-γGlu-C18 diacid])AQ[Aib]AFIEYLIEGGESSGAPPPSGS-NH2 [Example 215]
EC50 [1]: 87.3 nM
EC50 [2]: 162 nM
EC50 [3]: 1510 nM
EC50 [4, 7]: 0.418 nM
EC50 [5, 7]: 0.803 nM
EC50 [6, 7]: 9.77 nM

H-Y[Aib]QGTFTSD[4Pal]SQ[αMeL]LDKK([γGlu-γGlu-C18 diacid])AQ[Aib]AFIE[αMeY]LLEGGPSSGAPPPSGS-NH2 [Example 938]
EC50 [1]: 21.5 nM
EC50 [2]: 263 nM
EC50 [3]: 2830 nM
EC50 [4, 7]: 0.13 nM
EC50 [5, 7]: 1.84 nM
EC50 [6, 7]: 13.3 nM

H-Y[Aib]QGTFTSD[4Pal]S[Orn][αMeL]LDKK([γGlu-γGlu-C18 diacid])AQ[αMe4Pal]AFIEYLIE[Aib]GPSSGAPPPSGS-NH2 [Example 865]
EC50 [1]: 10.8 nM
EC50 [2]: 351 nM
EC50 [3]: 248 nM
EC50 [4, 7]: 0.0797 nM
EC50 [5, 7]: 3.02 nM
EC50 [6, 7]: 1.48 nM

H-Y[Aib]QGTFTSDFS[Orn][αMeL]LDKK([AEEA-γGlu-C20 diacid])AQ[Aib]AFIEYLLAGGPSSGAPPPSGSE-NH2 [Example 84]
EC50 [1]: 57.4 nM
EC50 [2]: 701 nM
EC50 [3]: 2280 nM
EC50 [4, 7]: 0.21 nM
EC50 [5, 7]: 1.61 nM
EC50 [6, 7]: 8.48 nM

H-Y[Aib]QGT[αMePhe(2-F)]TSD[4Pal][αMeS]I[αMeL]LD[Orn]K([AEEA-γGlu-C18 diacid])AQ[αMe4Pal]EFI[dE][αMeY]LIEGGPPS[Aib]EPPPSGSE-NH2 [Example 1200]
EC50 [1]: 0.896 nM
EC50 [2]: 91.4 nM
EC50 [3]: 278 nM
EC50 [4, 9]: 0.00883 nM
EC50 [5, 9]: 0.727 nM
EC50 [6, 9]: 1.5 nM

H-Y[Aib]QGT[αMePhe(2-F)]TSD[4Pal][αMeS]I[αMeL]LD[Orn]K([γGlu-γGlu-C18 diacid])AQ[Aib][Orn]FI[dE][αMeY]LAEGGPSSGEPPPSGGEE-NH2 [Example 590]
EC50 [1]: 4.25 nM
EC50 [2]: 58.7 nM
EC50 [3]: 309 nM
EC50 [4]: 0.105 nM
EC50 [5]: 0.89 nM
EC50 [6]: 4.34 nM

H-Y[Aib]QGT[αMePhe(2-F)]TSDYSKLLDKIAQK([AEEA-γGlu-C20 diacid])AFIEYLIEGGPSSGAPPPEGE-NH2 [Example 357]
EC50 [1]: 42.9 nM
EC50 [2]: 248 nM
EC50 [3]: 1810 nM
EC50 [4, 7]: 0.077 nM
EC50 [5, 7]: 0.625 nM
EC50 [6, 7]: 6.21 nM

CC[C@H](C)[C@H](NC(=O)[C@H](Cc1ccccc1)NC(=O)[C@H](C)NC(=O)C(C)(C)NC(=O)[C@H](CCC(N)=O)NC(=O)[C@H](C)NC(=O)[C@H](CCCCNC(=O)CC[C@H](NC(=O)CC[C@H](NC(=O)CCCCCCCCCCCCCCCCC(=O)O)C(=O)O)C(=O)O)NC(=O)[C@H](CCCCN)NC(=O)[C@H](CC(=O)O)NC(=O)[C@H](CC(C)C)NC(=O)[C@H](CC(C)C)NC(=O)[C@@H](NC(=O)[C@H](CO)NC(=O)[C@H](Cc1ccc(O)cc1)NC(=O)[C@H](CC(=O)O)NC(=O)[C@H](CO)NC(=O)[C@@H](NC(=O)[C@](C)(Cc1ccccc1F)NC(=O)[C@@H](NC(=O)CNC(=O)[C@H](CCC(N)=O)NC(=O)C(C)(C)NC(=O)[C@@H](N)Cc1ccc(O)cc1)[C@@H](C)O)[C@@H](C)O)[C@@H](C)CC)C(=O)N[C@@H](CCC(=O)O)C(=O)N[C@@H](Cc1ccc(O)cc1)C(=O)N[C@@H](CC(C)C)C(=O)N[C@@H](CCC(=O)O)C(=O)N[C@@H](CCC(=O)O)C(=O)NCC(=O)NCC(=O)N1CCC[C@H]1C(=O)N[C@@H](CO)C(=O)N[C@@H](CO)C(=O)NCC(=O)N[C@@H](C)C(=O)N1CCC[C@H]1C(=O)N1CCC[C@H]1C(=O)N1CCC[C@H]1C(=O)N[C@@H](CO)C(N)=O [Example 406] (H-Y[Aib]QGT[αMePhe(2-F)]TSDYSILLDKK([γGlu-γGlu-C18 diacid])AQ[Aib]AFIEYLEEGGPSSGAPPPS-NH2)
EC50 [1]: 10.5 nM
EC50 [2]: 27.8 nM
EC50 [3]: 254 nM
EC50 [4]: 0.0233 nM
EC50 [5]: 0.208 nM
EC50 [6]: 1.23 nM

H-Y[Aib]QGT[αMePhe(2-F)]TSD[4Pal][αMeS]I[αMeL]LD[Orn]K([AEEA-γGlu-C18 diacid])AQ[Aib][Orn]FI[dE]YLIEGGPSSGEPPPSGTE-NH2 [Example 501]
EC50 [1]: 2.32 nM
EC50 [2]: 38 nM
EC50 [3]: 455 nM
EC50 [4]: 0.0373 nM
EC50 [5]: 0.401 nM
EC50 [6]: 4.54 nM

Y[Aib]QGT[αMePhe(2-F)]TSD[4Pal][αMeS]I[αMeL]LD[Orn]K([γGlu-γGlu-C18 diacid])AQ[Aib][Orn]FI[dE][αMeY]LQEGGPSSGEPPPSGTE-NH2 [Example 504]
EC50 [1]: 1.8 nM
EC50 [2]: 16.5 nM
EC50 [3]: 162 nM
EC50 [4]: 0.0364 nM
EC50 [5]: 0.253 nM
EC50 [6]: 2.83 nM
